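The compound was tested at five concentrations on cells cultured in 96-well plates, with a 48-hour exposure period. The concentration for 50% growth inhibition is given as GI50. Definition used: TGI = concentration required for complete inhibition of growth.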
Key:
Assay in all cases: growth of human tumour cells (NCI), 48 h
A549 NSCLC = system: A549 NSCLC
CAKI-1 renal = system: CAKI-1 renal
CCRF-CEM leukemia = system: CCRF-CEM leukemia
K-562 leukemia = system: K-562 leukemia
KM12 colon = system: KM12 colon
NCI/ADR-RES ovarian = system: NCI/ADR-RES ovarian
OVCAR-3 ovarian = system: OVCAR-3 ovarian
SK-MEL-2 melanoma = system: SK-MEL-2 melanoma
U251 CNS = system: U251 CNS
UO-31 renal = system: UO-31 renal

Structure (SMILES)	GI50 (A549 NSCLC) [µM]	TGI (A549 NSCLC) [µM]	GI50 (CAKI-1 renal) [µM]	TGI (CAKI-1 renal) [µM]	GI50 (CCRF-CEM leukemia) [µM]	TGI (CCRF-CEM leukemia) [µM]	GI50 (K-562 leukemia) [µM]	TGI (K-562 leukemia) [µM]	GI50 (KM12 colon) [µM]	TGI (KM12 colon) [µM]	GI50 (NCI/ADR-RES ovarian) [µM]	TGI (NCI/ADR-RES ovarian) [µM]	GI50 (OVCAR-3 ovarian) [µM]	TGI (OVCAR-3 ovarian) [µM]	GI50 (SK-MEL-2 melanoma) [µM]	TGI (SK-MEL-2 melanoma) [µM]	GI50 (U251 CNS) [µM]	TGI (U251 CNS) [µM]	GI50 (UO-31 renal) [µM]	TGI (UO-31 renal) [µM]
Nc1c(C(=O)Nc2ccccn2)sc2nc3c(cc12)CCCCCC3	1.65	9.17	1.56	9.33	0.355	> 50	0.204	38.5	0.511	> 50	0.57	41.4	0.626	2.47	0.965	9.83	0.97	9.07	4.56	22.2
CCN(CC)Cc1cc(Nc2cc(C(F)(F)F)c(C#N)c3nc4ccccc4n23)ccc1O	3.17	12.5	1.77	11.2	2.79	> 100	3.1	> 100	2.42	8.22	2.64	15.9	1.83	10.4	1.35	7.81	1.5	6.47	1.12	3.1
O=c1c2ccccc2n2cnc3ccc(NCCNCCO)c1c32	–	3.66	–	9.46	–	> 47.3	–	> 51.1	–	5.72	–	16.5	–	9.82	–	8.8	–	13.6	–	11.6
Cc1ccc(NC2=CC(=O)C(=O)c3ccccc32)c(C)c1	1.97	4.34	2	7.95	6.23	> 100	4.03	29.4	2.82	13.1	2.92	11.8	1.49	4.47	2.29	6.4	3.07	11.9	2.19	14.5
CCN(CCNc1ccc(C)c2sc3cc(Cl)ccc3c(=O)c12)CC(C)(C)O	5.2	19.5	1.51	4.9	7.5	61	3.19	11.7	2.32	5.54	6.37	30.5	18.6	62.9	3.28	14.2	4.51	18.5	1.3	3.53
CC1=NN(c2nc(N)nc(/C=C\c3ccccc3)n2)C(C)(C)C1	15.8	38.3	15.4	30.9	2.99	34.7	3.98	22.1	1.59	10.5	3.75	24.7	3.73	16.1	11.2	30.6	3.19	28.9	13.5	28.5
